According to US9005981B2, “Assays utilizing nicotinic acetylcholine receptor subunits” (priority 2008, dated 2015):
Where two headings read alike, the source gives them in different places.

Tests used:
[1] = system: D α6 and C. elegans ric3 expressed in D.Mel-2 cells; type: binding, Drosophila melanogaster
Experimental: D.Mel-2 cells were seeded into 75 cm^2 flasks at 1.9×10^7 cells/flask in Drosophila SFM containing antibiotic/antimicotic and incubated overnight at 27° C. The transfection mix was prepared in 12×75 mm polystyrene tubes by mixing 1630 μl sterile water, 40 μg pIB/V5-HisA/ric3, 40 μg pIB/V5-HisA/30D and 250 μl CellFectin. The reagents were mixed gently and incubated at room temp for 15 minutes. While the transfection mix was incubating, the cells were washed with 10 ml fresh Drosophila SFM without antibiotics; this media was then removed from the cells and replaced with 6 ml fresh Drosophila SFM without antibiotics. To the transfection mix was added 4 ml Drosophila SFM without antibiotics and this was then transferred to the flask. The reagents were gently mixed by pipetting up and down and then incubated overnight at 27° C.
D.Mel-2 cells were purchased from Invitrogen (Carlsbad, Calif.) and grown in disposable 125 ml shake flasks using 50 ml volume. Cells were subcultured to 3×10^5 cells/ml twice per week in Drosophila SFM containing 5 ml/L Antibiotic-Antimycotic (100×) (Gibco, Carlsbad, Calif.). D.Mel-2 cells were seeded into a 12-well plate at a cell density of 5×10^5 cells/well and incubated overnight at 27° C. In a 12×75 mm polystyrene tube 6 μg pIB/V5-HisA/ric3, 82 μl sterile H2O and 12 μl CellFectin (Invitrogen, Carlsbad, Calif.) were added. The sample was mixed gently and incubated at room temperature for 15 minutes. While the transfection mix was incubating, media from one well of cells was removed and replaced with 1 ml fresh media without antibiotics. After 15 minutes, the media was removed from cells. To this transfection mix, 0.5 ml media (no antibiotics) was added. This solution was then added to the cells. The mixture was incubated for 48 hrs at 27° C. After 48 hrs, the cells were scraped from the plate using a cell scraper and split into 4 wells of a 6-well plate each containing 2 ml Drosophila SFM with antibiotics. Cells were allowed to attach for 1 hr at 27° C.; the media was removed and replaced with 2 ml fresh media containing 25 μg/ml Blasticidin S (Invitrogen, Carlsbad, Calif.). Cells were incubated at 27° C. for 5 days. After 5 days, the cells were scraped loose from the wells and combined into one tube. Cells were spun down at 600 rpm in a tabletop centrifuge; the media was removed and the cells were resuspended into a 50 ml shake culture in fresh Drosophila SFM containing 25 μg/ml Blasticidin S. The cells were incubated at 27° C./140 rpm. Cells were subcultured twice weekly back to cell density of 3×10^5 cells/ml. After 4 weeks the selection was cut back to 10 μg/ml Blasticidin S. After 3 months of growth under selection, a 12 well plate was seeded at 5×10^5 cells/well and cells were incubated over night at 27° C. The following reagents were added to each of three 12×75 mm polystyrene tubes: 2 μg pMT/V5-HisA/30D, 0.15 μg pCoHygro (Invitrogen, Carlsbad, Calif.) (a […] ratio of expression plasmid:selection plasmid), 89 μl sterile H2O and 12 μl CellFectin. The samples were mixed gently and incubated at room temp for 15 minutes and then transfected as described above. After 24 hrs, the media containing transfection mix was removed and replaced with 1 ml fresh media containing antibiotics. The incubation was continued at 27° C. for another 24 hrs. Cells were scraped loose from the 12-well plate (3 wells) and split into 2, 6-well plates. Cells were allowed to attach for 6 hours at which point, the media was replaced with 2 ml/well fresh media containing 200, 150, 100 or 50 μg/ml hygromycin B. The incubation was continued at 27° C.; every 4-5 days, the media was replaced with media containing hygromycin every 4-5 days. After 2 weeks of selection in the plates, the cells from the 200 μg/ml selection, were scraped loose and then gently pelleted and resuspended in 25 ml fresh media containing 200 μg/ml hygromycin B and then placed into a 125 ml shake flask.

34E/30D = type: cell-based, Drosophila melanogaster; design: key to the marks not given beside the values; details: spinosyn A 10 μM for 60 seconds, oocytes clamped to −60 mV, peak current
Experimental: (§1) Xenopus laevis (Xenopus 1, Ann Arbor, Mich.; Nasco, Fort Atkinson, Wis.) were anesthetized by bathing in a solution of 2 g/l tricaine methane sulfonate, and oocytes were surgically removed from the frog and placed in a culture solution that consisted of 96 mM NaCl, 2 mM KCl, 1.8 mM CaCl2, 1 mM MgCl2, 5 mM HEPES, 2.5 mM Na-pyruvate, 100 units/ml penicillin, and 0.1 mg/ml streptomycin, pH 7.6. Oocytes were dispersed in a nominally zero Ca^2+ protease treatment solution to defolliculate the oocytes. The protease treatment solution consisted of either 88 mM NaCl, 2.5 mM KCl, 1 mM MgCl2, 5 mM HEPES, 2.5 mM Na-pyruvate, 100 units/ml penicillin, and 0.1 mg/ml streptomycin, pH 7.6 plus 1.5 mg/ml collagenase IA (Sigma Chemical Co., St. Louis, Mo.). After isolation, the oocytes were thoroughly rinsed and returned to the above Ca^2+ containing culture solution and stored at 18° C.
(§2) Synthesis of cRNA was performed as follows: Plasmid DNA was linearized with one of the following restriction enzymes; Not I, Xho I or Nhe I. The linearized DNA was subsequently used as template for cRNA synthesis using T7 mMessage mMachine kit (Ambion, Austin, Tex.) following the manufacturer's instructions.
(§3) Micropipettes for injection of cRNA into Xenopus oocytes were pulled on a DMZ-Universal Puller (Zeitz-Instruments, München, Germany). […]

34E/30D/ric-3 = type: cell-based, Drosophila melanogaster; design: key to the marks not given beside the values; details: spinosyn A 10 μM for 60 seconds, oocytes clamped to −60 mV, peak current; also: key: '−' indicates a negligible current was induced; '+' indicates a small amplitude current; '++' indicates a moderate amplitude current; '++++' indicates a large amplitude current
Experimental: as §1, §2, §3

[2] = system: nicotinic acetylcholine receptor alpha-5 subunit (34E); type: cell-based, Drosophila melanogaster; also: key: '−' indicates a negligible current was induced; '+' indicates a small amplitude current; '++' indicates a moderate amplitude current; '++++' indicates a large amplitude current
Experimental: as §1, §2
(§4) Micropipettes for injection of cRNA into Xenopus oocytes were pulled on a DMZ-Universal Puller (Zeitz-Instruments, München, Germany). The cRNA to be injected was drawn up into the micropipette with negative pressure. Approximately 10-50 ng of cRNA was injected into the oocytes by applying positive pressure using a Nanoject II oocyte injector (Drummond Scientific Co., Broomall, Pa.). Nucleic acid was introduced into the oocytes as follows: (1) nicotinic acetylcholine receptor alpha-6 subunit subunit (30D) (2) nicotinic alpha-7 receptor subunit (34E); (3) nicotinic acetylcholine receptor alpha-6 subunit and C. elegans ric-3 (30D and ric-3); (4) nicotinic alpha-7 receptor subunit and C. elegans ric-3 (34E and ric-3); (5) nicotinic acetylcholine receptor alpha-6 subunit and nicotinic alpha-7 receptor subunit (30D and 34E); and, (6) nicotinic acetylcholine receptor alpha-6 subunit, nicotinic alpha-7 receptor subunit and C. elegans ric-3 (30D, 34E and ric-3).
(§5) The control external solution for voltage clamp recordings consisted of 88 mM NaCl, 1 mM KCl, 0.41 mM CaCl2, 2.4 mM NaHCO3, 0.3 mM Ca(NO3)2, 0.82 mM MgSO4.7H2O, and 15 mM HEPES, pH 7.6. The recording chamber was continuously perfused with a gravity-fed perfusion system. Nicotine (1 mM) was added to the external solution and then added to the perfusate for 30 seconds. Then, nicotine was washed from the external solution a minimum of 10 minutes. Thereafter, spinosyn A was dissolved in dimethylsulfoxide (DMSO) and then dissolved in the external solution at a final concentration of 10 μM and then added to the perfusate for 60 seconds. Then, the spinosyn A was washed from the external solution. The final concentration of DMSO never exceeded 0.1% (v/v).

30D/ric-3 = type: cell-based, Drosophila melanogaster; details: spinosyn A 10 μM for 60 seconds, oocytes clamped to −60 mV, peak current
Experimental: as §1, §2, §4, §5

[3] = system: nicotinic acetylcholine receptor alpha-6 subunit (30D); type: cell-based, Drosophila melanogaster; also: key: '−' indicates a negligible current was induced; '+' indicates a small amplitude current; '++' indicates a moderate amplitude current; '++++' indicates a large amplitude current
Experimental: as §1, §2, §4, §5

34E/ric-3 = type: cell-based, Drosophila melanogaster
Experimental: as §1, §2, §4, §5

Dα6-nicotinic receptor = type: binding, Drosophila melanogaster
Experimental: Xenopus oocytes were injected as previously described for the electrophysiological assay and were used intact for binding assays.
Two main radioligands were used in binding assays: the conventional α7 radioligand, [^3]methyllycaconitine (MLA) and [^3]dihydrospinosyn A (DHSA). For both radioligands, the Binding Buffer used consisted of 10 mM sodium phosphate (7.2-7.4). All experiments using D.Mel-2 cell suspensions were carried out with 50 μl of cell suspension. For Xenopus oocyte binding assays, oocytes were pooled (2-5 oocytes) and transferred to 1 ml Binding Buffer. This was followed by gently aspirating the Binding Buffer and replacing with fresh Binding Buffer twice, to wash out any residual oocyte bathing media. The final volume of buffer added to each pool of oocytes was 50-100 μl. […] Subsequent dilutions were made in Binding Buffer. The final concentration of solvent was maintained at less than 0.1% in each well. […] For the cell extracts, bound radioactivity and free radioactivity fractions were separated by gentle vacuum through GF/C glass fiber filter mats using a TomTec (CT) 96-well cell harvester. […] Filter mats were dried in an oven at 60° C. and the radioactivity from samples was counted for three minutes with a Wallac MicroBeta Counter (Wallac, Conn.) using Meltilex solid-scintillant (PerkinElmer, Finland). […]

[4] = system: Drosophila melanogaster flies of the Oregon wild-type strain; experiment: Fly mortality screen, wild-type flies; type: in vivo; details: 100 ppm in 10% sucrose via cotton wicks, 72 hours post-treatment
Experimental: (§6) Ten adult Drosophila melanogaster flies (5 males and 5 females) of the Oregon wild-type strain and ten adult flies of a spinosyn-resistant strain were used per treatment. Two sets (of 10 flies) were set-up per treatment. Stocks of spinosyn A and a 21-butenyl-spinosyn analog were formulated at 1000 ppm in 2:1 acetone:water and then diluted to the required concentration in 10% sucrose. Vials received 500 ul of treatment (or solvent for controls) via cotton wicks (approximately ¼ inch) and flies were added to each vial and capped with a cotton plug. Flies were monitored over 72 hours post-treatment while being maintained at room-temperature with a 12:12 light:dark cycle.
(§7) In addition, the spinosyn A resistant flies were >100-fold resistant (based on LD50) to the new class of spinosyns, represented by the 21-butenyl spinosyns.

[5] = system: Drosophila melanogaster flies of a spinosyn-resistant strain; experiment: Fly mortality screen, spinosyn-resistant flies; type: in vivo; details: for mortality: 100 ppm in 10% sucrose via cotton wicks, 72 hours post-treatment, spinosyn-resistant flies; for resistance of spinosyn A resistant flies compared to wild-type flies (based on LD50): dose-response data, LD50 resistant vs wild-type
Experimental: as §6, §7

[6] = D.Mel-2 cells expressing D α6 and C. elegans ric3
For Spinosyn A Response in this document: key: '−' indicates a negligible current was induced; '+' indicates a small amplitude current; '++' indicates a moderate amplitude current; '++++' indicates a large amplitude current.

NS(=O)(=O)c1cc(C(=O)O)c(NCc2ccco2)cc1Cl [furosemide]
displacement of [3H]DHSA binding [1]: No significant displacement

CCN1C[C@]2(COC(=O)c3ccccc3N3C(=O)C[C@H](C)C3=O)CC[C@H](OC)[C@@]34[C@@H]5C[C@H]6[C@H](OC)[C@@H]5[C@](O)(C[C@@H]6OC)[C@@](O)([C@@H](OC)[C@H]23)[C@@H]14 [MLA, methyllycaconitine]
displacement of [3H]DHSA binding [1, 6]: can be demonstrated at higher concentrations | overall affinity for this receptor complex ([1]; [3H]DHSA binding assay, D.Mel-2 cells): relatively poor

Clc1ccc(C2CC3CCC2N3)cn1 (centres unmarked) [epibatidine]
displacement of [3H]DHSA binding [1, 6]: did not significantly displace

CC[C@H]1CCC[C@H](O)[C@@H](C)C(=O)C2=C[C@@H]3[C@@H](C=C[C@@H]4C[C@@H](O[C@@H]5O[C@@H](C)[C@H](OC)[C@@H](OC)[C@H]5OC)C[C@@H]34)[C@@H]2CC(=O)O1 [pseudoagylcone of spinosyn A]
displacement of [3H]DHSA binding [1, 6]: Nor was there significant displacement

CN1COCN(Cc2cnc(Cl)s2)/C1=N\[N+](=O)[O-] [thiamethoxam]
displacement of [3H]DHSA binding [1, 6]: did not significantly displace

CC[C@H]1CCC[C@H](O[C@H]2CC[C@H](N(C)C)[C@@H](C)O2)[C@@H](C)C(=O)C2=C[C@@H]3[C@@H](C=C[C@@H]4C[C@@H](O[C@@H]5O[C@@H](C)[C@H](OC)[C@@H](OC)[C@H]5OC)C[C@@H]34)[C@@H]2CC(=O)O1 [Spinosyn A, spinosyn A]
Spinosyn A Response (34E/30D): ++ | Spinosyn A Response (34E/30D/ric-3): ++++ | Spinosyn A Response ([2]; 34E, spinosyn A 10 μM for 60 seconds, oocytes clamped to −60 mV, peak current): − | Spinosyn A Response (30D/ric-3): + | Spinosyn A Response ([3]; 30D, spinosyn A 10 μM for 60 seconds, oocytes clamped to −60 mV, peak current): − | Spinosyn A Response (34E/ric-3; 34E/ric-3, spinosyn A 10 μM for 60 seconds, oocytes clamped to −60 mV, peak current): − | % Displacement of Total Binding (Dα6-nicotinic receptor; 10 μM, [3H]MLA, intact Xenopus oocytes 3 days post-injection with Dmα6): 72% | mortality [4]: all wild-type flies exhibited mortality | mortality [5]: no significant mortality | resistance of spinosyn A resistant flies compared to wild-type flies (based on LD50) [5]: at least 100 fold | displacement of [3H]DHSA binding [1, 6]: significant displacement

21-butenyl spinosyn
mortality [4]: all wild-type flies exhibited mortality | mortality [5]: no significant mortality | resistance of spinosyn A resistant flies compared to wild-type flies (based on LD50) [5]: > 100 fold

CC[C@H]1CCC[C@H](O[C@H]2CC[C@H](N(C)C)[C@@H](C)O2)[C@@H](C)C(=O)C2=C[C@H]3[C@@H]4C[C@H](O[C@@H]5O[C@@H](C)[C@H](OC)[C@@H](OC)[C@H]5OC)C[C@H]4CC[C@H]3[C@@H]2CC(=O)O1 [dihydrospinosyn A]
displacement of [3H]DHSA binding [1, 6]: significant displacement

O=[N+]([O-])NC1=NCCN1Cc1ccc(Cl)nc1 [imidacloprid]
displacement of [3H]DHSA binding [1, 6]: did not significantly displace

CN1[C@@H](CC(=O)c2ccccc2)CCC[C@H]1C[C@H](O)c1ccccc1 [lobeline]
displacement of [3H]DHSA binding [1, 6]: did not significantly displace

C[N+](C)(C)CCOC(N)=O.[Cl-] [carbamylcholine]
displacement of [3H]DHSA binding [1, 6]: did not significantly displace

C[C@H](O)[C@H](O)[C@@H](O)[C@@H](O)C=O [rhamnose]
displacement of [3H]DHSA binding [1, 6]: No significant displacement

alpha-bungarotoxin
displacement of [3H]DHSA binding [1]: can be demonstrated at higher concentrations | overall affinity for this receptor complex [1]: relatively poor

CN1CCCC1c1cccnc1 (centres unmarked) [Nicotine, nicotine]
Nicotine Response [2]: + | Nicotine Response [3]: − | Nicotine Response (34E/ric-3): + | % Displacement of Total Binding (Dα6-nicotinic receptor): 72% | displacement of [3H]DHSA binding [1]: displacement
